# Experimental data: patent publication US10039747B2, “Tetrahydrocyclopentapyrrole derivatives and a method for preparing the same” (Daewoong Pharmaceutical Co., Ltd., priority 2013, dated 2018)
# Target: T1, H+/K+-ATPase (Sus scrofa, UniProt P19156)
# T1 construct: reaction buffer solution (60 mmol/l Tris-HCl buffer solution, pH 7.4) containing hog gastric vesicle; from tissue; host or cells: hog stomach (gastric vesicles, by centrifugation after Rabon et al. 1988)
# Assay: Inhibition of proton pump (H+/K+-ATPase) activity in hog gastric vesicles
# Type: biochemical
# Conditions: K+ specific H+/K+-ATPase activity, pH 7.4, 37° C. for 40 minutes, malachite green
# Experimental: 1) Preparation of Gastric Vesicles
# Gastric vesicles were prepared from hog stomach by centrifugation (Edd C. Rabon et al., Preparation of Gastric H^+,K^+-ATPase, Methods in enzymology, vol. 157 Academic Press Inc., (1988), pp. 649-654). The protein contents of the prepared gastric vesicles were quantified with a Bicinchoninic Acid (BCA) kit.
# 2) Measurement of Effect of Inhibiting Proton Pump (H^+/K^+-ATPase) Activity
# The effect of inhibiting proton pump activity by the compound of the present invention was measured in a 96-well plate. In this experiment, K^+ specific H^+/K^+-ATPase activity was calculated based on the difference between H^+/K^+-ATPase activity in the presence of K^+ ions and H^+/K^+-ATPase activity in the absence of K^+ ions. In the 96-well plate, to negative and positive control groups, 0.5% dimethylsulfoxide (DMSO) in buffer was added, and to the test groups, the compound of the present invention was added. All the analyses were conducted at room temperature with the reaction volume of 100 μl. To a reaction buffer solution (60 mmol/l Tris-HCl buffer solution, pH 7.4) containing hog gastric vesicle, DMSO and each concentration of compound were added, and then, 10 μl of a 10 mmol/l adenosine triphosphate tris buffer solution (60 mmol/l Tris-HCl buffer solution, pH 7.4) was added to initiate an enzyme reaction. The enzyme reaction was conducted at 37° C. for 40 minutes, 50 μl of a malachite green solution (0.12% malachite green solution, 5.8% ammonium molybdate and 11% tween 20 were mixed at a ratio of 100:67:2 in 6.2 N sulfuric acid) was added to stop the reaction, and 50 μl of 15.1% sodium citrate was added. During the reaction, the amount of monophosphate (Pi) was measured at 570 nm using micro plate reader (FLUOstar Omega, BMG Company). Inhibition rate (%) was measured from the activity values of the control groups and the activity values of various concentrations of the test compound, and IC50 of the test compound was calculated from each % inhibition value of the compound using Logistic 4-parameter function of Sigmaplot 8.0 program.
# T1 sequence (P19156 2-1034 limits assumed): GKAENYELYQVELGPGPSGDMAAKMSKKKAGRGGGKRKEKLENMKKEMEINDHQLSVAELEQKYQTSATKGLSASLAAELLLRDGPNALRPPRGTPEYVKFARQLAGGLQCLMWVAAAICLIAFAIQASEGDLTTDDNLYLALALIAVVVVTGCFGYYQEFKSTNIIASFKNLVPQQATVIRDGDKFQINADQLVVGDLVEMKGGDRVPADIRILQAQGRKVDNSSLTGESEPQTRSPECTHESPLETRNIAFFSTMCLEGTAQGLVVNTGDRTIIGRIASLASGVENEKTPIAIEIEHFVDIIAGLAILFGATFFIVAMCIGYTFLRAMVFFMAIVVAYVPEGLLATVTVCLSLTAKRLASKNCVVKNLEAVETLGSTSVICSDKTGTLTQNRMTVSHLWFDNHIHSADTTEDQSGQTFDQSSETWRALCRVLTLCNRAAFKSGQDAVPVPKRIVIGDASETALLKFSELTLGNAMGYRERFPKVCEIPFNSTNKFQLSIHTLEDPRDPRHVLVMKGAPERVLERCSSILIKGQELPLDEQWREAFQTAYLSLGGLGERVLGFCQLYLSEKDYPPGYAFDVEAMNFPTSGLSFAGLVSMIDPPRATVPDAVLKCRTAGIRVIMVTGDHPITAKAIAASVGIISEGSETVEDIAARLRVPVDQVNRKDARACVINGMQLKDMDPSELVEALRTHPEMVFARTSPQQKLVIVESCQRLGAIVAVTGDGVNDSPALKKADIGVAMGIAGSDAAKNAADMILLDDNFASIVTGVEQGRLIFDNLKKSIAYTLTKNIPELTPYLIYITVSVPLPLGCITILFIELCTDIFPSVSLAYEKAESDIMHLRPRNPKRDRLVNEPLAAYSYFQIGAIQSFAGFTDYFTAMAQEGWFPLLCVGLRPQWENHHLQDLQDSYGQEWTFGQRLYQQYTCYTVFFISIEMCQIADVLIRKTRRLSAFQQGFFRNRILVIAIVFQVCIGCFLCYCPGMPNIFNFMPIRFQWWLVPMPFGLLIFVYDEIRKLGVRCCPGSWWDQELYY
# T1 sequence (P18434 whole entry partner): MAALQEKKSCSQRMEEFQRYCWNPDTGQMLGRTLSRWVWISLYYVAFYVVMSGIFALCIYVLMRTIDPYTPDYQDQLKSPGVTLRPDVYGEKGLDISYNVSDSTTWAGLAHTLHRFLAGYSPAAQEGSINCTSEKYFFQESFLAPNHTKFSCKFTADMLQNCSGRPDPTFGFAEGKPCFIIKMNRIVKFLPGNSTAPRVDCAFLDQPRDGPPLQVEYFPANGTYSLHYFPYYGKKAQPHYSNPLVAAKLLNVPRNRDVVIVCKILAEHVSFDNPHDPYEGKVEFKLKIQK
row,IC50,Compound
1,320 nM,"CNC1CCc2c1cn(S(=O)(=O)c1cccc(Cl)c1)c2-c1ccsc1 (centres unmarked) [Example 33, 2-((3-chlorophenyl)sulfonyl)-N-methyl-1-(thiophen-3-yl)-2,4,5,6-tetrahydrocyclopenta[c]pyrrol-4-amine]"
2,690 nM,"CNC1CCc2c1cn(S(=O)(=O)c1cccc(Cl)c1)c2-c1cscc1C (centres unmarked) [Example 34, 2-((3-chlorophenyl)sulfonyl)-N-methyl-1-(4-methylthiophen-3-yl)-2,4,5,6-tetrahydrocyclopenta[c]pyrrol-4-amine]"
3,840 nM,"CNC1CCc2c1cn(S(=O)(=O)c1cccc(Cl)c1)c2-c1cc(C)sc1C (centres unmarked) [Example 35, 2-((3-chlorophenyl)sulfonyl)-1-(2,5-dimethylthiophen-3-yl)-N-methyl-2,4,5,6-tetrahydrocyclopenta[c]pyrrol-4-amine]"
4,2540 nM,"CNC1CCc2c1cn(S(=O)(=O)c1cccc(Cl)c1)c2-c1cccc(Cl)n1 (centres unmarked) [Example 36, 2-((3-chlorophenyl)sulfonyl)-1-(6-chloropyridin-2-yl)-N-methyl-2,4,5,6-tetrahydrocyclopenta[c]pyrrol-4-amine]"
5,1490 nM,"CNC1CCc2c1cn(S(=O)(=O)c1cccc(Cl)c1)c2-c1cccnc1 (centres unmarked) [Example 37, 2-((3-chlorophenyl)sulfonyl)-N-methyl-1-(pyridin-3-yl)-2,4,5,6-tetrahydrocyclopenta[c]pyrrol-4-amine]"
6,5820 nM,CNC1CCc2c1cn(S(=O)(=O)c1cccc(Cl)c1)c2-c1cccnc1C(F)(F)F (centres unmarked) [Example 38]
7,2510 nM,CNC1CCc2c1cn(S(=O)(=O)c1cccc(Cl)c1)c2-c1ccc(C(F)(F)F)nc1 (centres unmarked) [Example 39]
8,7690 nM,CNC1CCc2c1cn(S(=O)(=O)c1cccc(Cl)c1)c2-c1ccc(N2CCCC2)nc1 (centres unmarked) [Example 40]
9,3880 nM,"CNC1CCc2c1cn(S(=O)(=O)c1cccc(Cl)c1)c2-c1ccc(N2CCOCC2)nc1 (centres unmarked) [Example 41, 2-((3-chlorophenyl)sulfonyl)-N-methyl-1-(6-morpholinopyridin-3-yl)-2,4,5,6-tetrahydrocyclopenta[c]pyrrol-4-amine]"
10,5430 nM,"CNC1CCc2c1cn(S(=O)(=O)c1cccc(Cl)c1)c2-c1ccncc1 (centres unmarked) [Example 42, 2-((3-chlorophenyl)sulfonyl)-N-methyl-1-(pyridin-4-yl)-2,4,5,6-tetrahydrocyclopenta[c]pyrrol-4-amine]"
11,430 nM,"CNC1CCc2c1cn(S(=O)(=O)c1ccccc1)c2-c1ccccc1F (centres unmarked) [Example 43, 1-(2-fluorophenyl)-N-methyl-2-(phenylsulfonyl)-2,4,5,6-tetrahydrocyclopenta[c]pyrrol-4-amine]"
12,650 nM,"CNC1CCc2c1cn(S(=O)(=O)c1ccccc1)c2-c1ccc(C)cc1F (centres unmarked) [Example 44, 1-(2-fluoro-4-methylphenyl)-N-methyl-2-(phenylsulfonyl)-2,4,5,6-tetrahydrocyclopenta[c]pyrrol-4-amine]"
13,550 nM,"CNC1CCc2c1cn(S(=O)(=O)c1ccccc1)c2-c1cc(Cl)ccc1Cl (centres unmarked) [Example 45, 1-(2,5-dichlorophenyl)-N-methyl-2-(phenylsulfonyl)-2,4,5,6-tetrahydrocyclopenta[c]pyrrol-4-amine]"
14,3270 nM,"CNC1CCc2c1cn(S(=O)(=O)c1ccccc1OC)c2-c1ccccc1F (centres unmarked) [Example 46, 1-(2-fluorophenyl)-2-((2-methoxyphenyl)sulfonyl)-N-methyl-2,4,5,6-tetrahydrocyclopenta[c]pyrrol-4-amine]"
15,470 nM,"CNC1CCc2c1cn(S(=O)(=O)c1cccc(F)c1)c2-c1ccc(C)cc1F (centres unmarked) [Example 47, 1-(2-fluoro-4-methylphenyl)-2-((3-fluorophenyl)sulfonyl)-N-methyl-2,4,5,6-tetrahydrocyclopenta[c]pyrrol-4-amine]"
16,1000 nM,"CNC1CCc2c1cn(S(=O)(=O)c1ccccc1Cl)c2-c1ccc(C)cc1F (centres unmarked) [Example 48, 2-((2-chlorophenyl)sulfonyl)-1-(2-fluoro-4-methylphenyl)-N-methyl-2,4,5,6-tetrahydrocyclopenta[c]pyrrol-4-amine]"

row,IC50,Compound
1,2170 nM,"CNC1CCc2c1cn(S(=O)(=O)c1ccccc1Cl)c2-c1ccc(F)cc1C (centres unmarked) [Example 49, 2-((2-chlorophenyl)sulfonyl)-1-(4-fluoro-2-methylphenyl)-N-methyl-2,4,5,6-tetrahydrocyclopenta[c]pyrrol-4-amine]"
2,1050 nM,"CNC1CCc2c1cn(S(=O)(=O)c1ccccc1Cl)c2-c1cc(Cl)ccc1Cl (centres unmarked) [Example 50, 2-((2-chlorophenyl)sulfonyl)-1-(2,5-dichlorophenyl)-N-methyl-2,4,5,6-tetrahydrocyclopenta[c]pyrrol-4-amine]"
3,650 nM,"CNC1CCc2c1cn(S(=O)(=O)c1cccc(F)c1)c2-c1cc(Cl)ccc1Cl (centres unmarked) [Example 51, 1-(2,5-dichlorophenyl)-2-((3-fluorophenyl)sulfonyl)-N-methyl-2,4,5,6-tetrahydrocyclopenta[c]pyrrol-4-amine]"
4,350 nM,"CNC1CCc2c1cn(S(=O)(=O)c1cccc(C)c1)c2-c1ccc(C)cc1F (centres unmarked) [Example 52, 1-(2-fluoro-4-methylphenyl)-N-methyl-2-(m-tolylsulfonyl)-2,4,5,6-tetrahydrocyclopenta[c]pyrrol-4-amine]"
5,770 nM,"CNC1CCc2c1cn(S(=O)(=O)c1cccc(C)c1)c2-c1cc(Cl)ccc1Cl (centres unmarked) [Example 53, 1-(2,5-dichlorophenyl)-N-methyl-2-(m-tolylsulfonyl)-2,4,5,6-tetrahydrocyclopenta[c]pyrrol-4-amine]"
6,410 nM,"CNC1CCc2c1cn(S(=O)(=O)c1cccc(OC)c1)c2-c1ccc(C)cc1F (centres unmarked) [Example 54, 1-(2-fluoro-4-methylphenyl)-2-((3-methoxyphenyl)sulfonyl)-N-methyl-2,4,5,6-tetrahydrocyclopenta[c]pyrrol-4-amine]"
7,590 nM,"CNC1CCc2c1cn(S(=O)(=O)c1cccc(OC)c1)c2-c1cc(Cl)ccc1Cl (centres unmarked) [Example 55, 1-(2,5-dichlorophenyl)-2-((3-methoxyphenyl)sulfonyl)-N-methyl-2,4,5,6-tetrahydrocyclopenta[c]pyrrol-4-amine]"
8,1720 nM,"CNC1CCc2c1cn(S(=O)(=O)c1cccc(N(C)C)c1)c2-c1ccccc1F (centres unmarked) [Example 56, 2-((3-(dimethylamino)phenyl)sulfonyl)-1-(2-fluorophenyl)-N-methyl-2,4,5,6-tetrahydrocyclopenta[c]pyrrol-4-amine]"
9,420 nM,"CNC1CCc2c1cn(S(=O)(=O)c1cccc(OC(F)F)c1)c2-c1ccccc1F (centres unmarked) [Example 57, 2-((3-(difluoromethoxy)phenyl)sulfonyl)-1-(2-fluorophenyl)-N-methyl-2,4,5,6-tetrahydrocyclopenta[c]pyrrol-4-amine]"
10,5780 nM,"CNC1CCc2c1cn(S(=O)(=O)c1cccc(C(=O)N3CCOCC3)c1)c2-c1ccccc1F (centres unmarked) [Example 58, (3-((1-(2-fluorophenyl)-4-(methylamino)-5,6-dihydrocyclopenta[c]pyrrol-2(4H)-yl)sulfonyl)phenyl)(morpholino)methanone]"
11,1000 nM,"CNC1CCc2c1cn(S(=O)(=O)c1ccc(C)cc1)c2-c1ccccc1F (centres unmarked) [Example 59, 1-(2-fluorophenyl)-N-methyl-2-tosyl-2,4,5,6-tetrahydrocyclopenta[c]pyrrol-4-amine]"
12,420 nM,"CNC1CCc2c1cn(S(=O)(=O)c1ccc(F)cc1)c2-c1ccc(C)cc1F (centres unmarked) [Example 60, 1-(2-fluoro-4-methylphenyl)-2-((4-fluorophenyl)sulfonyl)-N-methyl-2,4,5,6-tetrahydrocyclopenta[c]pyrrol-4-amine]"
13,770 nM,"CNC1CCc2c1cn(S(=O)(=O)c1ccc(F)cc1)c2-c1cc(Cl)ccc1Cl (centres unmarked) [Example 61, 1-(2,5-dichlorophenyl)-2-((4-fluorophenyl)sulfonyl)-N-methyl-2,4,5,6-tetrahydrocyclopenta[c]pyrrol-4-amine]"
14,8750 nM,"CNC1CCc2c1cn(S(=O)(=O)c1ccc(-c3ccccc3)cc1)c2-c1ccccc1F (centres unmarked) [Example 62, 2-([1,1′-biphenyl]-4-ylsulfonyl)-1-(2-fluorophenyl)-N-methyl-2,4,5,6-tetrahydrocyclopenta[c]pyrrol-4-amine]"
15,610 nM,"CNC1CCc2c1cn(S(=O)(=O)c1cccc(Cl)c1C)c2-c1ccccc1F (centres unmarked) [Example 63, 2-((3-chloro-2-methylphenyl)sulfonyl)-1-(2-fluorophenyl)-N-methyl-2,4,5,6-tetrahydrocyclopenta[c]pyrrol-4-amine]"
16,840 nM,"CNC1CCc2c1cn(S(=O)(=O)c1cccc(Cl)c1Cl)c2-c1ccccc1F (centres unmarked) [Example 64, 2-((2,3-dichlorophenyl)sulfonyl)-1-(2-fluorophenyl)-N-methyl-2,4,5,6-tetrahydrocyclopenta[c]pyrrol-4-amine]"
